In PubChem BioAssay AID248 (DTP/NCI, 2004):
Several values for one entry are separate records, joined by “and”; a condition that tells them apart may be missing. Equal entries are not always repeated. Toxic doses and inconclusive results are not listed. Rule as the data show it: active = T/C of 150% or more; inactive = T/C below 125%.

System: L1210 leukemia ip in BDF1 mice, survival T/C
Assay: NCI In Vivo Anticancer Drug Screen. Data for tumor model L1210 Leukemia (intraperitoneal) in B6D2F1 (BDF1) mice
Conditions: endpoint: mean survival time, higher = longer survival
Procedure, shortened: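 Tumor cells were implanted, animals were treated, and survival was followed. The result divides the treated measurement by the vehicle-control measurement.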

[1] = dose: 100.0 mg/kg/injection, schedule: Q04DX003 (ip), vehicle: Klucel (hydroxypropylcellulose) (HPC)
[2] = dose: 200.0 mg/kg/injection, schedule: Q04DX003 (ip), vehicle: Klucel (hydroxypropylcellulose) (HPC)
[3] = dose: 400.0 mg/kg/injection, schedule: Q04DX003 (ip), vehicle: Klucel (hydroxypropylcellulose) (HPC)
[4] = dose: 100.0 mg/kg/injection, schedule: Q01DX009 (ip), vehicle: saline
[5] = dose: 100.0 mg/kg/injection, schedule: Q01DX009 (ip), vehicle: Klucel (hydroxypropylcellulose) (HPC)
[6] = dose: 200.0 mg/kg/injection, schedule: Q01DX009 (ip), vehicle: Klucel (hydroxypropylcellulose) (HPC)
[7] = dose: 100.0 mg/kg/injection, schedule: Q04DX002 (ip), vehicle: Klucel (hydroxypropylcellulose) (HPC)
[8] = dose: 200.0 mg/kg/injection, schedule: Q04DX002 (ip), vehicle: Klucel (hydroxypropylcellulose) (HPC)
[9] = dose: 400.0 mg/kg/injection, schedule: Q04DX002 (ip), vehicle: Klucel (hydroxypropylcellulose) (HPC)
[10] = dose: 100.0 mg/kg/injection, schedule: Q01DX009 (ip), vehicle: saline with Tween-80
[11] = dose: 200.0 mg/kg/injection, schedule: Q01DX009 (ip), vehicle: saline with Tween-80
[12] = dose: 200.0 mg/kg/injection, schedule: Q01DX009 (ip), vehicle: saline
[13] = dose: 50.0 mg/kg/injection, schedule: Q01DX009 (ip), vehicle: saline with Tween-80
[14] = dose: 400.0 mg/kg/injection, schedule: Q01DX009 (ip), vehicle: Klucel (hydroxypropylcellulose) (HPC)

Measured: T/C

O=[N+]([O-])c1cccc2c([N+](=O)[O-])cccc12
inactive: dose: 100.0 mg/kg/injection, schedule: Q01DX009 (ip), vehicle: saline sonified 107 % of control | [1] 95 % of control | dose: 200.0 mg/kg/injection, schedule: Q01DX009 (ip), vehicle: saline sonified 101 % of control | [2] 92 % of control | dose: 400.0 mg/kg/injection, schedule: Q01DX009 (ip), vehicle: saline sonified 109 % of control | [3] 90 % of control

COc1ccccc1CN1CCCN(Cc2ccccc2OC)C1c1cccc(F)c1
inactive: dose: 50.0 mg/kg/injection, schedule: Q01DX001 (ip), vehicle: carboxymethylcellulose (CMC) 112 % of control | dose: 100.0 mg/kg/injection, schedule: Q01DX001 (ip), vehicle: carboxymethylcellulose (CMC) 108 % of control | dose: 200.0 mg/kg/injection, schedule: Q01DX001 (ip), vehicle: carboxymethylcellulose (CMC) 108 % of control | dose: 400.0 mg/kg/injection, schedule: Q01DX001 (ip), vehicle: carboxymethylcellulose (CMC) 102 % of control

C[P+]1(C)CC2OC2C1 (configuration not stated)
inactive: dose: 12.5 mg/kg/injection, schedule: Q01DX009 (ip), vehicle: saline 91 % of control | dose: 25.0 mg/kg/injection, schedule: Q01DX009 (ip), vehicle: saline 102 % of control | dose: 50.0 mg/kg/injection, schedule: Q01DX009 (ip), vehicle: saline 94 % of control | [4] 91 % of control

C=CCOc1cc(C)cc(C)c1C
inactive: dose: 50.0 mg/kg/injection, schedule: Q01DX009 (ip), vehicle: Klucel (hydroxypropylcellulose) (HPC) 95 % of control | dose: 85.0 mg/kg/injection, schedule: Q04DX003 (ip), vehicle: Klucel (hydroxypropylcellulose) (HPC) 90 % of control | [5] 94 % of control | [1] 112 % of control | dose: 135.0 mg/kg/injection, schedule: Q04DX003 (ip), vehicle: Klucel (hydroxypropylcellulose) (HPC) 90 % of control | [6] 89 % of control | [2] 88 % of control | dose: 300.0 mg/kg/injection, schedule: Q04DX003 (ip), vehicle: Klucel (hydroxypropylcellulose) (HPC) 90 % of control | [3] 120 % of control

COC(=O)c1cccc2cn3ccc4c5ccccc5nc-4c3cc12
inactive: dose: 25.0 mg/kg/injection, schedule: Q01DX001 (ip), vehicle: saline with Tween-80 98 % of control | dose: 50.0 mg/kg/injection, schedule: Q01DX001 (ip), vehicle: saline with Tween-80 92 % of control | dose: 100.0 mg/kg/injection, schedule: Q01DX001 (ip), vehicle: saline with Tween-80 95 % of control and 92 % of control | dose: 400.0 mg/kg/injection, schedule: Q01DX001 (ip), vehicle: saline with Tween-80 92 % of control

CCCCOP(=O)(/C=C/c1ccc(NC(C)=O)cc1)OCCCC
inactive: [7] 104 % of control | [8] 96 % of control | [9] 89 % of control

N=C(N)c1ccccc1
inactive: dose: 100.0 mg/kg/injection, schedule: Q01DX Z (ip), vehicle: methylcellulose (MC) 94 % of control | dose: 150.0 mg/kg/injection, schedule: Q01DX Z (ip), vehicle: methylcellulose (MC) 96 % of control and 89 % of control

Cc1cc(C)c(B2OB(c3c(C)cc(C)cc3C)O2)c(C)c1
inactive: [5] 95 % of control | [1] 96 % of control | [6] 97 % of control | [2] 103 % of control | [3] 91 % of control

CCOC(=O)C(c1ccccc1)c1ccccc1
inactive: dose: 100.0 mg/kg/injection, schedule: Q01DX009 (ip), vehicle: other 102 % of control | dose: 200.0 mg/kg/injection, schedule: Q01DX009 (ip), vehicle: other 94 % of control | dose: 400.0 mg/kg/injection, schedule: Q01DX009 (ip), vehicle: other 93 % of control

CC(C)(C)n1cc(C(=O)c2ccccc2)cc1-c1ccccc1
inactive: [10] 91 % of control | [11] 91 % of control | dose: 400.0 mg/kg/injection, schedule: Q01DX009 (ip), vehicle: saline with Tween-80 87 % of control

Cc1nc2nc(N)[nH]c(=O)c2[nH]c1=O
inactive: [4] 89 % of control | dose: 100.0 mg/kg/injection, schedule: Q04DX003 (ip), vehicle: saline 100 % of control | [12] 88 % of control | dose: 200.0 mg/kg/injection, schedule: Q04DX003 (ip), vehicle: saline 96 % of control | dose: 400.0 mg/kg/injection, schedule: Q04DX003 (ip), vehicle: saline 96 % of control

O=C(OCC1CC1)c1ccc(N=Nc2ccccc2)cc1
inactive: dose: 75.0 mg/kg/injection, schedule: Q04DX002 (ip), vehicle: Klucel (hydroxypropylcellulose) (HPC) 102 % of control | dose: 150.0 mg/kg/injection, schedule: Q04DX002 (ip), vehicle: Klucel (hydroxypropylcellulose) (HPC) 108 % of control | dose: 300.0 mg/kg/injection, schedule: Q04DX002 (ip), vehicle: Klucel (hydroxypropylcellulose) (HPC) 105 % of control

O=C(O)/C=C/Sc1ccc(Cl)cc1
inactive: [13] 94 % of control | [10] 94 % of control | dose: 100.0 mg/kg/injection, schedule: Q04DX002 (ip), vehicle: saline with Tween-80 95 % of control | [11] 94 % of control | dose: 200.0 mg/kg/injection, schedule: Q04DX002 (ip), vehicle: saline with Tween-80 92 % of control

Cc1ccc(C)c(NC(=O)c2ccccc2C(=O)O)c1
inactive: [5] 102 % of control | [1] 101 % of control | [6] 104 % of control | [2] 102 % of control | [14] 93 % of control | [3] 98 % of control

CCCCCCCCCCCCSCCOC(=O)C1C2CCC(O2)C1C(=O)O (configuration not stated)
inactive: dose: 12.5 mg/kg/injection, schedule: Q04DX003 (ip), vehicle: Klucel (hydroxypropylcellulose) (HPC) 96 % of control | dose: 25.0 mg/kg/injection, schedule: Q04DX003 (ip), vehicle: Klucel (hydroxypropylcellulose) (HPC) 100 % of control | dose: 50.0 mg/kg/injection, schedule: Q04DX003 (ip), vehicle: Klucel (hydroxypropylcellulose) (HPC) 90 % of control

CC(=O)c1ccc(OCc2ccccc2)cc1O
inactive: [4] 111 % of control | [12] 100 % of control | dose: 400.0 mg/kg/injection, schedule: Q01DX009 (ip), vehicle: saline 100 % of control

O=C1/C(=C\c2cccnc2)CCCc2ccccc21
inactive: dose: 100.0 mg/kg/injection, schedule: Q04DX003 (ip), vehicle: carboxymethylcellulose (CMC) 100 % of control | dose: 200.0 mg/kg/injection, schedule: Q04DX003 (ip), vehicle: carboxymethylcellulose (CMC) 98 % of control | dose: 400.0 mg/kg/injection, schedule: Q04DX003 (ip), vehicle: carboxymethylcellulose (CMC) 98 % of control

CC(=O)Nc1ccccc1O
inactive: dose: 50.0 mg/kg/injection, schedule: Q04DX002 (ip), vehicle: Klucel (hydroxypropylcellulose) (HPC) 94 % of control | dose: 75.0 mg/kg/injection, schedule: Q01DX009 (ip), vehicle: saline 95 % of control | [7] 94 % of control and 102 % of control | dose: 150.0 mg/kg/injection, schedule: Q01DX009 (ip), vehicle: saline 113 % of control | [8] 102 % of control | dose: 300.0 mg/kg/injection, schedule: Q01DX009 (ip), vehicle: saline 89 % of control | [9] 113 % of control

CCCCC(NC(C)=O)C(=O)O (configuration not stated)
inactive: [5] 96 % of control and 100 % of control | [1] 90 % of control | [6] 86 % of control and 97 % of control | [2] 97 % of control | [14] 88 % of control | [3] 90 % of control

CC(C)(Oc1ccc(Cl)cc1)C(=O)NCCCCCC(=O)O
inactive: [13] 98 % of control | [10] 98 % of control | [11] 95 % of control
